1 compound from US20170159129A1, “METHODS FOR DETECTING TELOMERE MAINTENANCE MECHANISMS” (priority 2015, published 2017) can be followed below.

The assay deals with ALT+ cell lines U2OS, Saos-2 and G-292. The assay can be described thus: Flow-FISH G to C ratio assay for inhibition of ALT activity in ALT+ cell lines. Format: cell-based. The settings on record: ALT+ cell lines incubated with 3 mM HU for 48 hours; untreated ALT+ lines above 0.8; ratio below 0.8 indicates a decrease in ALT activity. The source says: The present disclosure is directed to a novel improvement of flow-FISH that has been adapted for quantifying ALT activity in a cell. Briefly, cells to be analyzed are first mixed with an internal standard for telomeric DNA content. In one embodiment, the 1301 cell line, a T-cell leukemia cell line with long homogeneous telomeres is used. In other embodiments, flow cytometry microbeads with telomeric oligonucleotides can also be used to provide a standard. […] In some embodiments, the labels have the same fluorescence and stability characteristics (e.g. FITC). In other embodiments, the labels for the two probes may be different and have different fluorescence and stability characteristics. […] After incubation, cells are washed in flow cytometry staining buffer and then analyzed by flow cytometry.
Relative C-strand content and relative G-strand content of the sample cells is determined, and a ratio of G content to C content calculated. First, the mean fluorescence of the probes is measured for both sample cells and standard. […] The fluorescent marker in the standard allows for identification of the internal standard and separation of its Tel G and Tel C probe fluorescence. […]

On to `NC(=O)NO` [hydroxyurea], for which the “G to C ratio (relative telomeric G content to C content, relative to 1301 cell standard)” value is “below 0.8”.
